Experimental data from patent US10238670B2, “9-aminomethyl minocycline compounds and methods of use thereof in urinary tract infection (UTI) treatment” (Paratek Pharmaceuticals, Inc., priority 2016, dated 2019).
Values after ≈ are worked out from the molar mass of the structure shown. Read-outs that look alike come from different tables or passages of the source.

Assays:
Test in all cases: In vitro MIC, 2010 surveillance isolates
E. coli ESBL− = type: cell-based, Escherichia coli
K. pneumoniae ESBL− = type: cell-based, Klebsiella pneumoniae
MS CoNS = type: cell-based, Coagulase-Negative Staphylococcus
E. cloacae CeftazR = type: cell-based
MR CoNS = type: cell-based, Coagulase-Negative Staphylococcus
Enterobacter spp = type: cell-based
A. baumanii = type: cell-based
K. pneumoniae ESBL+ = type: cell-based, Klebsiella pneumoniae
E. faecalis VNS = type: cell-based; details: for % R (resistance): CLSI breakpoints
E. cloacae CeftazS = type: cell-based
MRSA = type: cell-based
E. coli ESBL+ = type: cell-based, Escherichia coli
Acinetobacter spp = type: cell-based
E. faecium VNS = type: cell-based; details: for % R (resistance): CLSI breakpoints
E. faecalis VS = type: cell-based; details: for % R (resistance): CLSI breakpoints
E. faecium VS = type: cell-based; details: for % R (resistance): CLSI breakpoints
K. oxytoca = type: cell-based
MSSA = type: cell-based

## C[C@H]1COc2c(N3CCN(C)CC3)c(F)cc3c(=O)c(C(=O)O)cn1c23 [Levofloxacin]
E. coli ESBL−; Asia/Pac, Eucast breakpoints
  % R (resistance): 17%
E. coli ESBL−; Asia/Pac, N=282
  MIC90: > 4 µg/mL
E. coli ESBL−; Europe, Eucast breakpoints
  % R (resistance): 19.3%
E. coli ESBL−; Europe, N=1533
  MIC90: > 4 µg/mL
E. coli ESBL−; L. Amer, CLSI breakpoints
  % R (resistance): 22.9%
E. coli ESBL−; L. Amer, N=389
  MIC90: > 4 µg/mL
E. coli ESBL−; N America, CLSI breakpoints
  % R (resistance): 21.9%
E. coli ESBL−; N America, N=1172
  MIC90: > 4 µg/mL
K. pneumoniae ESBL−; Asia/Pac, Eucast breakpoints
  % R (resistance): 5.3%
K. pneumoniae ESBL−; Asia/Pac, N=189
  MIC90: 1 µg/mL (≈ 2.77 µM)
K. pneumoniae ESBL−; Europe, Eucast breakpoints
  % R (resistance): 4.2%
K. pneumoniae ESBL−; Europe, N=361
  MIC90: ≤ 0.5 µg/mL
K. pneumoniae ESBL−; L. Amer, CLSI breakpoints
  % R (resistance): 7.5%
K. pneumoniae ESBL−; L. Amer, N=160
  MIC90: 1 µg/mL (≈ 2.77 µM)
K. pneumoniae ESBL−; N America, CLSI breakpoints
  % R (resistance): 1.9%
K. pneumoniae ESBL−; N America, N=671
  MIC90: ≤ 0.5 µg/mL
MS CoNS; Asia/Pac, Eucast breakpoints
  % R (resistance): 16.7%
MS CoNS; Asia/Pac, N=18
  MIC90: > 4 µg/mL
MS CoNS; Europe, Eucast breakpoints
  % R (resistance): 9.7%
MS CoNS; Europe, N=185
  MIC90: 2 µg/mL (≈ 5.53 µM)
MS CoNS; L. Amer, CLSI breakpoints
  % R (resistance): 6%
MS CoNS; L. Amer, N=67
  MIC90: ≤ 0.5 µg/mL
MS CoNS; N America, CLSI breakpoints
  % R (resistance): 23.6%
MS CoNS; N America, N=191
  MIC90: > 4 µg/mL
E. cloacae CeftazR; Asia/Pac, Eucast breakpoints
  % R (resistance): 20.6%
E. cloacae CeftazR; Asia/Pac, N=63
  MIC90: > 4 µg/mL
E. cloacae CeftazR; Europe, Eucast breakpoints
  % R (resistance): 22.2%
E. cloacae CeftazR; Europe, N=72
  MIC90: > 4 µg/mL
E. cloacae CeftazR; L. Amer, CLSI breakpoints
  % R (resistance): 31%
E. cloacae CeftazR; L. Amer, N=42
  MIC90: > 4 µg/mL
E. cloacae CeftazR; N America, CLSI breakpoints
  % R (resistance): 19.5%
E. cloacae CeftazR; N America, N=77
  MIC90: > 4 µg/mL
MR CoNS; Asia/Pac, Eucast breakpoints
  % R (resistance): 55.8%
MR CoNS; Asia/Pac, N=77
  MIC90: > 4 µg/mL
MR CoNS; Europe, Eucast breakpoints
  % R (resistance): 64.9%
MR CoNS; Europe, N=510
  MIC90: > 4 µg/mL
MR CoNS; L. Amer, CLSI breakpoints
  % R (resistance): 57.8%
MR CoNS; L. Amer, N=301
  MIC90: > 4 µg/mL
MR CoNS; N America, CLSI breakpoints
  % R (resistance): 64.9%
MR CoNS; N America, N=461
  MIC90: > 4 µg/mL
Enterobacter spp; Asia/Pac, Eucast breakpoints
  % R (resistance): 1.9%
Enterobacter spp; Asia/Pac, N=52
  MIC90: ≤ 0.5 µg/mL
Enterobacter spp; Europe, Eucast breakpoints
  % R (resistance): 73%
Enterobacter spp; Europe, N=82
  MIC90: 1 µg/mL (≈ 2.77 µM)
Enterobacter spp; L. Amer, CLSI breakpoints
  % R (resistance): 9.5%
Enterobacter spp; L. Amer, N=42
  MIC90: 4 µg/mL (≈ 11.1 µM)
Enterobacter spp; N America, CLSI breakpoints
  % R (resistance): 1%
Enterobacter spp; N America, N=101
  MIC90: ≤ 0.5 µg/mL
A. baumanii; Asia/Pac, Eucast breakpoints
  % R (resistance): 79.3%
A. baumanii; Asia/Pac, N=275
  MIC90: > 4 µg/mL
A. baumanii; Europe, Eucast breakpoints
  % R (resistance): 74.5%
A. baumanii; Europe, N=145
  MIC90: > 4 µg/mL
A. baumanii; L. Amer, CLSI breakpoints
  % R (resistance): 86.9%
A. baumanii; L. Amer, N=275
  MIC90: > 4 µg/mL
A. baumanii; N America, CLSI breakpoints
  % R (resistance): 68.8%
A. baumanii; N America, N=154
  MIC90: > 4 µg/mL
K. pneumoniae ESBL+; Asia/Pac, Eucast breakpoints
  % R (resistance): 61.3%
K. pneumoniae ESBL+; Asia/Pac, N=124
  MIC90: > 4 µg/mL
K. pneumoniae ESBL+; Europe, Eucast breakpoints
  % R (resistance): 66.9%
K. pneumoniae ESBL+; Europe, N=151
  MIC90: > 4 µg/mL
K. pneumoniae ESBL+; L. Amer, CLSI breakpoints
  % R (resistance): 67.9%
K. pneumoniae ESBL+; L. Amer, N=209
  MIC90: > 4 µg/mL
K. pneumoniae ESBL+; N America, CLSI breakpoints
  % R (resistance): 75%
K. pneumoniae ESBL+; N America, N=108
  MIC90: > 4 µg/mL
E. faecalis VNS; Asia/Pac, N=1
  range of MICs (N <10, shown instead of MIC90): >4
E. faecalis VNS; L. Amer
  % R (resistance): 100%
E. faecalis VNS; L. Amer, N=7
  range of MICs (N <10, shown instead of MIC90): > 4
E. faecalis VNS; N America
  % R (resistance): 97.4%
E. faecalis VNS; N America, N=38
  MIC90: > 4 µg/mL
E. cloacae CeftazS; Asia/Pac, Eucast breakpoints
  % R (resistance): 4%
E. cloacae CeftazS; Asia/Pac, N=100
  MIC90: ≤ 0.5 µg/mL
E. cloacae CeftazS; Europe, Eucast breakpoints
  % R (resistance): 2.2%
E. cloacae CeftazS; Europe, N=183
  MIC90: ≤ 0.5 µg/mL
E. cloacae CeftazS; L. Amer, CLSI breakpoints
  % R (resistance): 12.3%
E. cloacae CeftazS; L. Amer, N=57
  MIC90: > 4 µg/mL
E. cloacae CeftazS; N America, CLSI breakpoints
  % R (resistance): 2.9%
E. cloacae CeftazS; N America, N=210
  MIC90: ≤ 0.5 µg/mL
MRSA; Asia/Pac, Eucast breakpoints
  % R (resistance): 70.6%
MRSA; Asia/Pac, N=428
  MIC90: > 4 µg/mL
MRSA; Europe, Eucast breakpoints
  % R (resistance): 86.4%
MRSA; Europe, N=750
  MIC90: > 4 µg/mL
MRSA; L. Amer, CLSI breakpoints
  % R (resistance): 84%
MRSA; L. Amer, N=506
  MIC90: > 4 µg/mL
MRSA; N America, CLSI breakpoints
  % R (resistance): 67.3%
MRSA; N America, N=2508
  MIC90: > 4 µg/mL
E. coli ESBL+; Asia/Pac, Eucast breakpoints
  % R (resistance): 78.1%
E. coli ESBL+; Asia/Pac, N=219
  MIC90: > 4 µg/mL
E. coli ESBL+; E. coli
  resistance rates for ESBL-producing clinical isolates: 76.5%
E. coli ESBL+; Escherichia coli, ESBL-producing E. coli, read-out: MIC90
  MIC90: > 4 µg/mL
E. coli ESBL+; Europe, Eucast breakpoints
  % R (resistance): 79.2%
E. coli ESBL+; Europe, N=274
  MIC90: > 4 µg/mL
E. coli ESBL+; L. Amer, CLSI breakpoints
  % R (resistance): 81%
E. coli ESBL+; L. Amer, N=168
  MIC90: > 4 µg/mL
E. coli ESBL+; N America, CLSI breakpoints
  % R (resistance): 74.6%
E. coli ESBL+; N America, N=134
  MIC90: > 4 µg/mL
Acinetobacter spp; Asia/Pac, Eucast breakpoints
  % R (resistance): 11.1%
Acinetobacter spp; Europe, Eucast breakpoints
  % R (resistance): 41.9%
Acinetobacter spp; Europe, N=43
  MIC90: > 4 µg/mL
Acinetobacter spp; L. Amer, CLSI breakpoints
  % R (resistance): 33.3%
Acinetobacter spp; N America, CLSI breakpoints
  % R (resistance): 14.3%
Acinetobacter spp; N America, N=42
  MIC90: > 4 µg/mL
E. faecium VNS; Asia/Pac, N=24
  MIC90: > 4 µg/mL
E. faecium VNS; Europe, N=71
  MIC90: > 4 µg/mL
E. faecium VNS; L. Amer
  % R (resistance): 100%
E. faecium VNS; L. Amer, N=41
  MIC90: > 4 µg/mL
E. faecium VNS; N America
  % R (resistance): 99.6%
E. faecium VNS; N America, N=478
  MIC90: > 4 µg/mL
E. faecalis VS; Asia/Pac, N=214
  MIC90: > 4 µg/mL
E. faecalis VS; Europe, N=669
  MIC90: > 4 µg/mL
E. faecalis VS; L. Amer
  % R (resistance): 30%
E. faecalis VS; L. Amer, N=290
  MIC90: > 4 µg/mL
E. faecalis VS; N America
  % R (resistance): 29.3%
E. faecalis VS; N America, N=863
  MIC90: > 4 µg/mL
E. faecium VS; Asia/Pac, N=106
  MIC90: > 4 µg/mL
E. faecium VS; Europe, N=303
  MIC90: > 4 µg/mL
E. faecium VS; L. Amer
  % R (resistance): 78.4%
E. faecium VS; L. Amer, N=51
  MIC90: > 4 µg/mL
E. faecium VS; N America
  % R (resistance): 68.7%
E. faecium VS; N America, N=115
  MIC90: > 4 µg/mL
K. oxytoca; Asia/Pac, Eucast breakpoints
  % R (resistance): 0%
K. oxytoca; Asia/Pac, N=17
  MIC90: ≤ 0.5 µg/mL
K. oxytoca; Europe, Eucast breakpoints
  % R (resistance): 3.2%
K. oxytoca; Europe, N=158
  MIC90: ≤ 0.5 µg/mL
K. oxytoca; L. Amer, CLSI breakpoints
  % R (resistance): 16%
K. oxytoca; L. Amer, N=25
  MIC90: > 4 µg/mL
K. oxytoca; N America, CLSI breakpoints
  % R (resistance): 1.7%
K. oxytoca; N America, N=177
  MIC90: ≤ 0.5 µg/mL
MSSA; Asia/Pac, Eucast breakpoints
  % R (resistance): 5.9%
MSSA; Asia/Pac, N=641
  MIC90: ≤ 0.5 µg/mL
MSSA; Europe, Eucast breakpoints
  % R (resistance): 5.5%
MSSA; Europe, N=2109
  MIC90: ≤ 0.5 µg/mL
MSSA; L. Amer, CLSI breakpoints
  % R (resistance): 2.2%
MSSA; L. Amer, N=590
  MIC90: ≤ 0.5 µg/mL
MSSA; N America, CLSI breakpoints
  % R (resistance): 10.8%
MSSA; N America, N=2373
  MIC90: 4 µg/mL (≈ 11.1 µM)
